The series concerns MCF-10A. Kind of series: Cytotoxicity against human MCF-10A cells assessed as reduction in cell viability at 0.5 uM incubated for 7 days by high contrast bright field microscopic analysis. The conditions noted are these: 168 h, time 7 day. It is filed as toxicity, cell-based.

On to `CNCCN1CCC(c2cc(CN(C)C(=O)c3cccc(Oc4ccc(OCC(=O)N5CCC(CN6CCC(CN7CCN(CC(=O)N[C@H](C(=O)N8C[C@H](O)C[C@H]8C(=O)N[C@@H](C)c8ccc(-c9scnc9C)cc8)C(C)(C)C)CC7)CC6)CC5)cc4)c3)ccn2)CC1`, for which the Activity entry is “Non-Toxic”.

These data come from ChEMBL document CHEMBL5365479, “Development of Potent and Selective Coactivator-Associated Arginine Methyltransferase 1 (CARM1) Degraders” (J Med Chem, 2023).
